Consider 27 molecules from patent US20100120763A1, “IMIDAZO[5,1-C][1,2,4]BENZOTRIAZINE DERIVATIVES AS INHIBITORS OF PHOSPHODIESTERASES” (priority 2008, published 2010).

One test concerns the target T1, PDE2A (Homo sapiens, UniProt O00408).
T1 construct: made in house; host or cells: SF21 insect cells (baculovirus)
Put plainly: Inhibition of recombinant PDE2A (expressed in baculovirus/SF21-cells), [3H]-cAMP SPA. The test is classed as biochemical. As to the method:
Inhibition of Recombinant PDE2A (Expressed in Baculovirus/SF21-Cells)
PDE2A (NM002599) was cloned and the gene was inserted in the baculovirus and the enzyme-protein expressed in SF21-cells. The enzyme was isolated from these cells by harvesting the cells by an centrifugation at 200 g to collect the cells. The cells were resuspended in 50 mM Tris-HCl/5 mM MgCl2 buffer (pH=7.4) (Sigma, Deisenhofen, Germany; Merck, Darmstadt, Germany) and lysed by a sonication of the cells (three times for 15 seconds, Labsonic U, Fa. Braun, Degersheim, Switzerland, level “high”). The membrane fraction of PDE2A was obtained by a centrifugation at 48 000 g for 1 h, resuspended in buffer and stored at −70° C.
PDE2A activity was determined in a one step procedure in microtiterplates. The reaction mixture of 100 μl contained 50 mM Tris-HCl/5 mM MgCl2 buffer (pH=7.4) (Sigma, Deisenhofen, Germany; Merck, Darmstadt, Germany), 0.5 μM [3H]-cAMP (Amersham, Buckinghamshire, UK), 1000 nM cGMP and the enzyme. Non-specific enzyme activity was tested in the absence of cGMP. The reaction was initiated by addition of the substrate solution and was carried out at 37° C. for 30 minutes. Enzymatic activity then was stopped by addition of 25 μl SPA-beads (Amersham-Pharmacia). One hour later the mixture was measured in a liquid scintillation counter for microtiterplates (Microbeta Trilux). For pipetting of the incubation mixture the robot Biomek (Fa. Beckman) was routinely used.
For determination of IC50 values the Hill-plot, 2-parameter-model, was used.

A further test addresses T2, PDE10A (Homo sapiens, UniProt Q9Y233).
T2 construct: made in house; host or cells: SF21 insect cells (baculovirus)
Briefly: Inhibition of recombinant PDE10A (baculovirus/SF21 system), [3H]-cAMP SPA. The settings on record: read-out: PDE10A IC50. The test is classed as biochemical. As to the method:
Inhibition of Recombinant PDE10A (Baculovirus/SF21 System)
The gene was than inserted into a baculovirus vector, ligated with the baculovirus DNA. The enzyme-protein was expressed in SF21-cells. The enzyme was isolated from these cells by harvesting the cells by an centrifugation at 500 g to collect the cells.
The cells were resuspended in 50 mM Tris-HCl/1 mM EDTA/250 mM Sucrose buffer, pH=7.4 (Sigma, Deisenhofen, Germany; Merck, Darmstadt, Germany) and lysed by sonification of the cells (three times for 15 seconds, Labsonic U, Fa. Braun, Degersheim, Switzerland, level “high”). The cytosolic PDE10A was obtained by a centrifugation at 48,000 g for 1 h in the supernatant and stored at −70° C.
PDE activity was determined in a one step procedure in microtiter plates. The reaction mixture of 100 μl contained 50 mM Tris-HCl/5 mM MgCl2 buffer (pH=7.4, Sigma, Deisenhofen, Germany; Merck, Darmstadt, Germany) 0.1 μM [3H]-cAMP (Amersham, Buckinghamshire, UK) and the enzyme. Non-specific enzyme activity was determined without the enzyme. The reaction was initiated by addition of the substrate solution and was carried out at 37° C. for 30 minutes. Enzymatic activity then was stopped by addition of 25 μl Ysi-SPA-beads (Amersham-Pharmacia). One hour later the mixture was measured in a liquid scintillation counter for microtiter plates (Microbeta Trilux). The Biomek 2000 (Beckman) was used routinely for pipetting of the incubation mixture. […] For determination of IC50 values the Hill-plot, 2-parameter-model, was used.

Setting [1] is: recombinant PDE10A1, cytosolic, 0.1 μM [3H]-cAMP, 37° C., 30 minutes.

pIC50: −log10 of the molar value. Read-outs that look alike come from different tables or passages of the source. Bounds are passed on as bounds.

T2 sequence (Q9Y233 1-779 isoform Q9Y233-1): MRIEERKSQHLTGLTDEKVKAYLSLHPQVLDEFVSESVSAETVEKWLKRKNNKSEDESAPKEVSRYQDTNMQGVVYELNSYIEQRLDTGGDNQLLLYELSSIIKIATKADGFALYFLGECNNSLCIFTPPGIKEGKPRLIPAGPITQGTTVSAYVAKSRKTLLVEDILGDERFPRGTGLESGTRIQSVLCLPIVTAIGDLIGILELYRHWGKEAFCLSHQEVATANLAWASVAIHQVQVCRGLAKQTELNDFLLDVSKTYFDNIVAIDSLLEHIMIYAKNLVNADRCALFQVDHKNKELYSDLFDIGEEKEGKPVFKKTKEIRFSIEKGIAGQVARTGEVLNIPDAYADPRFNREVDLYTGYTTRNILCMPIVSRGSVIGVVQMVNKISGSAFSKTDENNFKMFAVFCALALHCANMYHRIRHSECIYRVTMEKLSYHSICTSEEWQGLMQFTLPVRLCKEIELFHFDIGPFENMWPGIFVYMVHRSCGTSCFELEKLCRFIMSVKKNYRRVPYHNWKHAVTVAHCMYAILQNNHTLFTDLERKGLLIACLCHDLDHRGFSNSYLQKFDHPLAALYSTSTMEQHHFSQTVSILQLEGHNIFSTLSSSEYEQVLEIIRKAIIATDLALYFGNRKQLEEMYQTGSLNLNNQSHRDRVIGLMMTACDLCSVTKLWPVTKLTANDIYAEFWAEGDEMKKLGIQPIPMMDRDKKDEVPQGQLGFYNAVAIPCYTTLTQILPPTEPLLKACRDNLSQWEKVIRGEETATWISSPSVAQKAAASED
T1 sequence (O00408 whole entry): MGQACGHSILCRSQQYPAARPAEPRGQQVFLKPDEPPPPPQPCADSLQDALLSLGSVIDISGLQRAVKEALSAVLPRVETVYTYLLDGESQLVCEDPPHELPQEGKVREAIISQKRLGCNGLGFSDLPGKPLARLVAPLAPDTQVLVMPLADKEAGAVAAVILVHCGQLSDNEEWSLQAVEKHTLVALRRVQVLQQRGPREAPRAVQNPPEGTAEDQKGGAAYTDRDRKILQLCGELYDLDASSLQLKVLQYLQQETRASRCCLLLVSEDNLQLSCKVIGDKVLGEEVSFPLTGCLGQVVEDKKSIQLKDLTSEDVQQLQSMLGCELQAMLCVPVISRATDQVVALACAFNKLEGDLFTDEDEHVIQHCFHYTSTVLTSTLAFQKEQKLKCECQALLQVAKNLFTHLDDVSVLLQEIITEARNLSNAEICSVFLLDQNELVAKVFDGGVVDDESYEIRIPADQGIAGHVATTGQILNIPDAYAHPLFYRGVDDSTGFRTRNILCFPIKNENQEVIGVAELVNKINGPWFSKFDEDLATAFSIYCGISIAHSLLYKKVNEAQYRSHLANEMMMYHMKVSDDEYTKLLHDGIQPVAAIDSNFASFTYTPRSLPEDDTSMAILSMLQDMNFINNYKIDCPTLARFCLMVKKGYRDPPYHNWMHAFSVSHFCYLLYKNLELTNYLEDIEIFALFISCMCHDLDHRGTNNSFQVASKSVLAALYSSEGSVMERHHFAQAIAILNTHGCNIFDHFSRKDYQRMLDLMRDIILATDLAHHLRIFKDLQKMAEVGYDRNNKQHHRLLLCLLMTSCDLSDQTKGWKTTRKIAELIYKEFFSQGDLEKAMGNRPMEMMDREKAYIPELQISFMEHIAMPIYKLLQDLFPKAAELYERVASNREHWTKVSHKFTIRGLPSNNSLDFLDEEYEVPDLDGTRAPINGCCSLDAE

For the molecule `COc1cc(F)c2nnc3c(C)nc(-c4cc(C)ccc4F)n3c2c1` [Example 75, 6-fluoro-1-(2-fluoro-5-methylphenyl)-8-methoxy-3-methylimidazo[5,1-c][1,2,4]benzotriazine], the pIC50 at PDE2A was 7.86; at PDE10A (setting [1]) it was 7.82.

For the molecule `COc1cc(F)cc2c1nnc1c(C)nc(-c3ccc(F)nc3C)n12` [Example 120, 8-fluoro-1-(6-fluoro-2-methylpyridin-3-yl)-6-methoxy-3-methylimidazo[5,1-c][1,2,4]benzotriazine], the figures for the pIC50 on PDE2A and on PDE10A (setting [1]) were less than 5.00 and 7.27, respectively.

With `COc1cc(F)c2nnc3c(C)nc(-c4cc(Cl)ccc4F)n3c2c1` [Example 88, 1-(5-chloro-2-fluorophenyl)-6-fluoro-8-methoxy-3-methylimidazo[5,1-c][1,2,4]benzotriazine], the figures for the pIC50 at PDE2A and at PDE10A (setting [1]) were 7.85 and 8.10, respectively. The corresponding values for `COc1cc(OC)c2nnc3c(C)nc(-c4cccnc4C)n3c2c1` [Example 48, 6,8-dimethoxy-3-methyl-1-(2-methylpyridin-3-yl)imidazo[5,1-c][1,2,4]benzotriazine] are 6.71 and 8.83. The matching figures for `COc1cc(F)c2nnc3c(C)nc(-c4cc(C(F)(F)F)ccc4Cl)n3c2c1` [Example 82, 1-[2-chloro-5-(trifluoromethyl)phenyl]-6-fluoro-8-methoxy-3-methylimidazo[5,1-c][1,2,4]benzotriazine]: 7.22 and 6.70.

Consider `COc1cc(OC)c2nnc3c(C)nc(-c4c(C)n[nH]c4C)n3c2c1` [Example 51, 1-(3,5-dimethyl-1H-pyrazol-4-yl)-6,8-dimethoxy-3-methylimidazo[5,1-c][1,2,4]benzotriazine], for which the pIC50 was 6.68 at PDE2A and 9.15 on PDE10A (setting [1]). The matching figures for `COc1cncc(-c2nc(C)c3nnc4c(F)cc(OC)cc4n23)c1` [Example 95, 6-fluoro-8-methoxy-1-(5-methoxypyridin-3-yl)-3-methylimidazo[5,1-c][1,2,4]benzotriazine]: 7.40 and 7.34. With `COc1cc(F)cc2c1nnc1c(C)nc(-c3cc(C(N)=O)ccc3F)n12` [Example 128, 4-fluoro-3-(8-fluoro-6-methoxy-3-methylimidazo[5,1-c][1,2,4]benzotriazin-1-yl)benzamide], the pIC50 at PDE2A was 6.18; at PDE10A (setting [1]), 8.20. In the case of `COc1ccc(Cl)cc1-c1nc(C)c2nnc3c(OC)cc(C(F)(F)F)cc3n12` [Example 142, 1-(5-Chloro-2-methoxyphenyl)-6-methoxy-3-methyl-8-(trifluoromethyl)benzo[e]imidazo[5,1-c][1,2,4]triazine], the pIC50 at PDE10A (setting [1]) is 7.97. On to `Cc1cn(-c2ccc3nnc4c(C)nc(C5CCCCC5)n4c3c2)c(C2CCCCC2)n1` [Example 179, 1-Cyclohexyl-8-(2-cyclohexyl-4-methyl-imidazol-1-yl)-3-methyl-imidazo[5,1-c][1,2,4]benzotriazine], for which the results for the pIC50 on PDE2A and at PDE10A (setting [1]) were 6.62 and 6.49, respectively. The corresponding values for `COc1cc(F)cc2c1nnc1c(C)nc(-c3ccc(F)cc3C)n12` [Example 110, 8-fluoro-1-(4-fluoro-2-methylphenyl)-6-methoxy-3-methylimidazo[5,1-c][1,2,4]benzotriazine] are 6.22 and 8.07. `CCOc1ccc(Cl)c(-c2nc(C)c3nnc4c(OC)cc(F)cc4n23)c1` [Example 108, 1-(2-chloro-5-ethoxyphenyl)-8-fluoro-6-methoxy-3-methylimidazo[5,1-c][1,2,4]benzotriazine]: the pIC50 is 7.26 at PDE2A and 8.08 at PDE10A (setting [1]). The corresponding values for `COc1cc(OC)c2nnc3c(C)nc(-c4ccncc4C)n3c2c1` [Example 47, 6,8-dimethoxy-3-methyl-1-(3-methylpyridin-4-yl)-imidazo[5,1-c][1,2,4]benzotriazine] are 6.23 and 8.69. The matching figures for `COc1cc(F)c2nnc3c(C)nc(-c4cc(Cl)ccc4C)n3c2c1` [Example 79, 1-(5-chloro-2-methylphenyl)-6-fluoro-8-methoxy-3-methylimidazo[5,1-c][1,2,4]benzotriazine]: 8.08 and 7.82.

For the molecule `COc1cc(F)cc2c1nnc1c(C)nc(-c3cc(C(F)(F)F)ccc3Cl)n12` [Example 101, 1-[2-chloro-5-(trifluoromethyl)phenyl]-8-fluoro-6-methoxy-3-methylimidazo[5,1-c][1,2,4]benzotriazine], the pIC50 on PDE2A was 6.59; on PDE10A (setting [1]), 7.37.

Take `COc1ccc(F)c(-c2nc(C)c3nnc4c(F)cc(OC)cc4n23)c1` [Example 76, 6-fluoro-1-(2-fluoro-5-methoxyphenyl)-8-methoxy-3-methylimidazo[5,1-c][1,2,4]benzotriazine]: the pIC50 is 8.03 on PDE2A and 8.02 at PDE10A (setting [1]). The corresponding values for `COc1cncc(-c2nc(C)c3nnc4c(OC)cc(F)cc4n23)c1` [Example 122, 8-fluoro-6-methoxy-1-(5-methoxypyridin-3-yl)-3-methylimidazo[5,1-c][1,2,4]benzotriazine] are 5.79 and 7.41. In the case of `COc1cc(F)cc2c1nnc1c(C)nc(-c3c(C)n[nH]c3C)n12` [Example 124, 1-(3,5-dimethyl-1H-pyrazol-4-yl)-8-fluoro-6-methoxy-3-methylimidazo[5,1-c][1,2,4]benzotriazine], the values for the negative logarithm of the IC50 (pIC50) on PDE2A and on PDE10A (setting [1]) were 5.84 and 7.89, respectively. As for `COc1cc(OC)c2nnc3c(C)nc(-c4c(C)nn(C)c4C)n3c2c1` [Example 52, 6,8-dimethoxy-3-methyl-1-(1,3,5-trimethyl-1H-pyrazol-4-yl)imidazo[5,1-c][1,2,4]benzotriazine], the pIC50 at PDE2A was 6.53; on PDE10A (setting [1]), 8.73.

As for `COc1cc(F)cc2c1nnc1c(C)nc(-c3ccc(F)cc3Cl)n12` [Example 111, 1-(2-chloro-4-fluorophenyl)-8-fluoro-6-methoxy-3-methylimidazo[5,1-c][1,2,4]benzotriazine], the values for the pIC50 at PDE2A and on PDE10A (setting [1]) were 6.49 and 8.52, respectively. The corresponding values for `Cc1nc(-c2cc(Cl)ccc2Cl)n2c1nnc1c(Cl)cc(C(F)(F)F)cc12` [Example 133, 6-chloro-1-(2,5-dichlorophenyl)-3-methyl-8-(trifluoromethyl)imidazo[5,1-c][1,2,4]benzotriazine] are 6.39 and 8.01. The corresponding values for `COc1cc(OCc2ccccc2)cc2c1nnc1c(C)nc(-c3cccnc3C)n12` [Example 154, 8-(benzyloxy)-6-methoxy-3-methyl-1-(2-methylpyridin-3-yl)imidazo[5,1-c][1,2,4]benzotriazine] are 7.13 and 9.17. In the case of “8-fluoro-6-methoxy-3-methyl-1-(3-methylpyridin-4-yl)imidazo[5,1-c][1,2,4]benzotriazine [Example 131]”, the pIC50 on PDE10A (setting [1]) is 8.14. In the case of `Cc1cnccc1-c1nc(C)c2nnc3c(Cl)cc(C(F)(F)F)cc3n12` [Example 132, 6-Chloro-3-methyl-1-(3-methylpyridin-4-yl)-8-(trifluoromethyl)imidazo[5,1-c][1,2,4]benzotriazine], at PDE10A (setting [1]), the pIC50 was 7.49. With “8-fluoro-6-methoxy-3-methyl-1-(2-methylpyridin-3-yl)imidazo[5,1-c][1,2,4]benzotriazine [Example 130]”, the pIC50 at PDE10A was 8.11. For the molecule `COc1cc(F)cc2c1nnc1c(C)nc(-c3cc(C)ccc3F)n12` [Example 105, 8-fluoro-1-(2-fluoro-5-methylpehnyl)-6-methoxy-3-methylimidazo[5,1-c][1,2,4]benzotriazine], on PDE10A (setting [1]), the pIC50 was 8.15.

As for `COc1cc(F)cc2c1nnc1c(C)nc(-c3cc(F)ccc3Cl)n12` [Example 118, 1-(2-chloro-5-fluorophenyl)-8-fluoro-6-methoxy-3-methylimidazo[5,1-c][1,2,4]benzotriazine], the pIC50 on PDE10A (setting [1]) was 8.69.
